The record followed here is the METLIN SMRT retention time set (Domingo-Almenara et al. 2019).

This series can be described thus: gradient 5% acetonitrile 3 min, to 50% in 2 min, to 85% in 15 min, held 3 min, 100 µL/min. To be noted: column: Zorbax Extend-C18 2.1 x 50 mm; eluents: water / acetonitrile, 0.1% formic acid. The procedure, abridged:
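Pure standards were analyzed in mixtures of ~100 molecules using HPLC coupled to a quadrupole time-of-flight mass spectrometer, in both positive and negative ionization mode. Separation used a Zorbax Extend-C18 column (2.1 × 50 mm, 1.8 μm) at 100 μL/min, with water and acetonitrile each containing 0.1% formic acid. Dead and dwell volumes were 40 μL and 900 μL, and data were collected over 3 months. Retention time was read from computationally picked adduct peaks, each inspected manually.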
The molecule `CCN(CC)C(=O)c1ccc2c(c1)nnn2CCNC(=O)Nc1ccc2c(c1)CCC2` displayed an RP-LC retention time of 764 s.

Consider `CNC(=O)c1sc(-c2ccc(C)cc2)nc1C`, for which the RP-LC retention time stood at 785 s.

`COc1cc(F)ccc1-c1ccnc2nc(CC(C)C)nn12` yielded an RP-LC retention time of 862 s.

The molecule `CN(C(=O)C1CCN(S(=O)(=O)c2cc(C(=O)N3CCCCCC3)cs2)CC1)C1CCCCC1` returned an RP-LC retention time of 975 s.

Regarding `O=C(O)c1ccc(OCCOc2ccccc2)cc1`, the RP-LC retention time was 916 s.

In turn, `Cc1cccc(Sc2nccnc2N2CCCC(C(=O)NCc3ccc4c(c3)OCO4)C2)c1` (centres undefined) displayed an RP-LC retention time of 1030 s.

As to `COc1ncccc1CNC(=O)CCc1ccccc1`, the RP-LC retention time was found to be 738 s.

Molecule `CSc1ccccc1NC(=O)C(=O)NCCn1nc(-c2ccco2)ccc1=O` had an RP-LC retention time of 781 s.

The molecule `COCCn1c(C2CCN(S(=O)(=O)c3ccc(F)cc3)C2)nc2cccnc21` (centres undefined) had an RP-LC retention time of 763 s.

With `Cc1ccc(S(=O)(=O)n2c(N)nc3ccccc32)cc1`, the RP-LC retention time stood at 825 s.

The molecule `CC(=O)Nc1ccc2c(c1)nc(CN1CCN(C(=O)c3ccco3)CC1)n2C` displayed an RP-LC retention time of 576 s.

Molecule `O=c1[nH]ccc2c(O)cccc12` registered an RP-LC retention time of 584 s.

With `Cc1nc(Cn2cccc2C(=O)NC2CCCCCCC2)no1`, the RP-LC retention time is 954 s.

On to `Cc1nc2ccccc2n(CCC(=O)NCCc2c[nH]c3ccc(Cl)cc23)c1=O`, for which the RP-LC retention time was 795 s.

The molecule `CCOc1ccccc1CNC(=O)C1CCN(Cc2c(C)n(CC)c3ccccc23)CC1` came in with an RP-LC retention time of 780 s.

As to `CNC(=O)C1CC(=O)N(c2cccc(C)c2)C1` (centres undefined), the RP-LC retention time was 637 s.

`OCC1OC(n2cnc3c(SCc4ccccc4)ncnc32)C(O)C1O` (centres undefined) registered an RP-LC retention time of 663 s.

Turning to `C=CCN1C(=O)COc2ccc(-c3csc(NC(=O)c4ccccc4)n3)cc21`, the RP-LC retention time worked out at 982 s.

`CC(C)NC(=O)N1CCCC(c2cccc(C(=O)NCC3CCCCC3)c2)C1` (centres undefined): the RP-LC retention time was 945 s.

As to `COC(=O)C1=CN(c2ccc(C)c(F)c2)c2cc(F)ccc2S1(=O)=O`, the RP-LC retention time worked out at 920 s.

`CC1(C)CC(=O)C2=C(C1)N(CC1CCCO1)C(=O)C2(NC(=O)c1ccc(F)cc1)C(F)(F)F` (centres undefined) had an RP-LC retention time of 929 s.

Molecule `CN(C)c1cc(C(=O)Nc2ccccc2)c2ccccc2n1` displayed an RP-LC retention time of 651 s.

As to `CC(Cc1cccs1)NC(=O)Cc1ccc(SC(C)C)cc1` (centres undefined), the RP-LC retention time came to 969 s.

Consider `O=C(Cn1nc(N2CCOCC2)c2ccccc2c1=O)Nc1cccc(C(F)(F)F)c1`, for which the RP-LC retention time was determined as 894 s.

Turning to `CCOCC(=O)N1CCCn2cc(-c3ccccc3)nc21`, the RP-LC retention time came out at 621 s.

With `O=C(CCc1conc1-c1ccc(F)cc1)NC1CCN(Cc2ccccc2)CC1`, the RP-LC retention time turned out to be 657 s.

The molecule `C=CCNC(=O)c1cn(-c2cc(-c3nc(C4CC4)no3)ccn2)cn1` displayed an RP-LC retention time of 800 s.

The molecule `Cc1ccc(C)c2c(=O)c3c([nH]c12)CCN(CC(=O)Nc1ccccc1)C3` registered an RP-LC retention time of 627 s.

Molecule `CCc1nc2onc(C)c2c(=O)n1CC(=O)NCCC1=CCCCC1` yielded an RP-LC retention time of 899 s.

`COc1ccc(N2CCN(S(=O)(=O)c3cc(-c4nc(C(C)C)cs4)cs3)CC2)cc1` showed an RP-LC retention time of 1250 s.

As to `Cc1ccc(-c2nc3nc4c(c(N5CCN(c6ccccn6)CC5)n3n2)CCC4)cc1`, the RP-LC retention time stood at 684 s.

Molecule `Cc1cc(=O)n(CC(=O)N2CCOCC2)c(N2CCOCC2)n1` registered an RP-LC retention time of 534 s.

As to `CC1CCN(CCNC(=O)c2ccc3c(c2)nc2n3CCN(Cc3ccccc3)C2=O)CC1`, the RP-LC retention time was 621 s.

`CCc1ccc(-c2noc(Cn3c(=O)n(-c4cccc(C)c4)c(=O)c4sccc43)n2)cc1` yielded an RP-LC retention time of 1150 s.
